In patent US9290451B2 (Hoffmann-La Roche Inc., priority 2011, dated 2016) one finds EC50 data, which are given here for 27 compounds.

One test concerns the target human CB2 receptors (Homo sapiens (Human), UniProt P34972). Nature of the test: cAMP assay, CHO cells expressing human CB2 receptors. Type of test: cell-based. The following applies: CHO cells expressing human CB2, cAMP; read-out: human CB2 EC50. How it is done: (§1) CHO cells expressing human CB1 or CB2 receptors are seeded 17-24 hours prior to the experiment 50.000 cells per well in a black 96 well plate with flat clear bottom (Corning Costar #3904) in DMEM (Invitrogen No. 31331), 1×HT supplement, with 10% fetal calf serum and incubated at 5% CO2 and 37° C. in a humidified incubator. The growth medium was exchanged with Krebs Ringer Bicarbonate buffer with 1 mM IBMX and incubated at 30° C. for 30 min Compounds were added to a final assay volume of 100 μl and incubated for 30 min at 30° C. Using the cAMP-Nano-TRF detection kit the assay (Roche Diagnostics) was stopped by the addition of 50 μl lysis reagent (Tris, NaCl, 1.5% Triton X100, 2.5% NP40, 10% NaN3) and 50 μl detection solutions (20 μM mAb Alexa700-cAMP 1:1, and 48 μM Ruthenium-2-AHA-cAMP) and shaken for 2 h at room temperature. The time-resolved energy transfer is measured by a TRF reader (Evotec Technologies GmbH), equipped with a ND:YAG laser as excitation source. The plate is measured twice with the excitation at 355 nm and at the emission with a delay of 100 ns and a gate of 100 ns, total exposure time 10 s at 730 (bandwidth 30 nm) or 645 nm (bandwidth 75 nm), respectively. The FRET signal is calculated as follows: FRET=T730-Alexa730-P(T645-B645) with P═Ru730-B730/Ru645-B645, where T730 is the test well measured at […], T645 is the test well measured at 645 nm, B730 and B645 are the buffer controls at 730 nm and 645 nm, respectively. cAMP content is determined from the function of a standard curve spanning from 10 μM to 0.13 nM cAMP.
(§2) EC50 values were determined using Activity Base analysis (ID Business Solution, Limited). The EC50 values for a wide range of cannabinoid agonists generated from this assay for reference compounds were in agreement with the values published in the scientific literature.

Another test has as its target human CB1 receptors (Homo sapiens (Human), UniProt P21554). The test is described as follows: cAMP assay, CHO cells expressing human CB1 receptors. The following applies: CHO cells expressing human CB1, cAMP; read-out: human CB1 EC50. The test is classed as cell-based. How it is done: as §1, §2
For orientation: Cyclic AMP is a second messenger, typically raised through Gs and lowered through Gi signalling.

human CB1 receptors, sequence (P21554 whole entry): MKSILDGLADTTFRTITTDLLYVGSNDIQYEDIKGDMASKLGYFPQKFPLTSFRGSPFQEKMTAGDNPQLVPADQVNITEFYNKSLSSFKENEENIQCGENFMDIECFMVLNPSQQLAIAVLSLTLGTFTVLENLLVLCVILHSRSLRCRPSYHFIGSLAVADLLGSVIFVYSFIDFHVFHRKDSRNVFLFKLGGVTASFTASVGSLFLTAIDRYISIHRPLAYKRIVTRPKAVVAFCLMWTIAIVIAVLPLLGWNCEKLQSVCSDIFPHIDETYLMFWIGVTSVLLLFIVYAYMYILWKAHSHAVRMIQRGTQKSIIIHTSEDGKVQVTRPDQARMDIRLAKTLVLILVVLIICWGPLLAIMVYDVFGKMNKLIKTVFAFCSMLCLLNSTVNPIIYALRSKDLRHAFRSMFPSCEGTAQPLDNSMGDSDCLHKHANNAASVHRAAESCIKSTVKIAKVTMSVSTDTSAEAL
human CB2 receptors, sequence (P34972 whole entry): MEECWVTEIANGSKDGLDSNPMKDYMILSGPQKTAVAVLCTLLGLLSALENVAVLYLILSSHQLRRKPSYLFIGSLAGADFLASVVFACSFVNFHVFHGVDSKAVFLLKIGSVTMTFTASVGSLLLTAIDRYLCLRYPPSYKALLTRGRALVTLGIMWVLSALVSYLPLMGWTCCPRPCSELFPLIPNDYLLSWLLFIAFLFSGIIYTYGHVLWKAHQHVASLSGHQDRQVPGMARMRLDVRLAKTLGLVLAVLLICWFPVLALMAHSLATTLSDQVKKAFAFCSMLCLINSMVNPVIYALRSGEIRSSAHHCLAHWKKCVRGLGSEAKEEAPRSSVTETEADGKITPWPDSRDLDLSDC

By EC50 is commonly meant the concentration needed to bring the measured effect to its halfway point. `CNC(=O)C(C)(C)NC(=O)c1ccc(C2CC2)c(OCC2CC2)n1` [Example 43, 5-Cyclopropyl-6-cyclopropylmethoxy-pyridine-2-carboxylic acid (1-methyl-1-methylcarbamoyl-ethyl)-amide]: the EC50 was 275 nM on human CB2 receptors and greater than 10000 nM at human CB1 receptors.

Consider `CC(C)(NC(=O)c1ccc(C2CC2)c(OCC2CC2)n1)c1nccs1` [Example 44, 5-Cyclopropyl-6-cyclopropylmethoxy-pyridine-2-carboxylic acid (1-methyl-1-thiazol-2-yl-ethyl)-amide], for which the EC50 at human CB2 receptors was determined as 13.5 nM; at human CB1 receptors, 1610 nM.

With `Cc1nc(C(C)(C)NC(=O)c2ccc(C3CC3)c(OCC3CC3)n2)no1` [Example 45, 5-Cyclopropyl-6-cyclopropylmethoxy-pyridine-2-carboxylic acid [1-methyl-1-(5-methyl-[1,2,4]oxadiazol-3-yl)-ethyl]-amide], the EC50 on human CB2 receptors is 87.1 nM; at human CB1 receptors, 1060 nM.

On to `O=C(NN1CCCCC1)c1cccc(-c2ccc(Cl)cc2)n1` [Example 46, 6-(4-Chloro-phenyl)-pyridine-2-carboxylic acid piperidin-1-ylamide], for which the EC50 at human CB2 receptors was 290 nM; on human CB1 receptors it was greater than 10000 nM.

In the case of `Cc1ccc(C(=O)NN2CCCCC2)nc1OCC1CC1` [Example 47, 6-Cyclopropylmethoxy-5-methyl-pyridine-2-carboxylic acid piperidin-1-ylamide], the EC50 at human CB2 receptors was 138 nM; at human CB1 receptors, greater than 10000 nM.

`Cc1ccc(C(=O)NC(C)(C)c2ncco2)nc1-c1cccc(Cl)c1` [Example 49, 6-(3-Chloro-phenyl)-5-methyl-pyridine-2-carboxylic acid (1-methyl-1-oxazol-2-yl-ethyl)-amide]: the EC50 at human CB2 receptors was 308 nM; at human CB1 receptors, greater than 10000 nM.

On to `Cc1ccc(C(=O)NC(C)(C)c2nccs2)nc1-c1cccc(Cl)c1` [Example 50, 6-(3-Chloro-phenyl)-5-methyl-pyridine-2-carboxylic acid (1-methyl-1-thiazol-2-yl-ethyl)-amide], for which the EC50 at human CB2 receptors is 133 nM; on human CB1 receptors it was 1490 nM.

As for `Cc1nc(C(C)(C)NC(=O)c2ccc(C)c(-c3cccc(Cl)c3)n2)no1` [Example 51, 6-(3-Chloro-phenyl)-5-methyl-pyridine-2-carboxylic acid [1-methyl-1-(5-methyl-[1,2,4]oxadiazol-3-yl)-ethyl]-amide], the values for the EC50 at human CB2 receptors and on human CB1 receptors were 127 nM and greater than 10000 nM, respectively.

`Cc1ccc(C(=O)NN2CCCCC2)nc1-c1cccc(Cl)c1` [Example 52, 6-(3-Chloro-phenyl)-5-methyl-pyridine-2-carboxylic acid piperidin-1-yl-amide]: the half-maximal effective concentration (EC50) at human CB2 receptors was 322 nM; at human CB1 receptors, greater than 10000 nM.

As to `Cc1nc([C@H](CC2CC2)NC(=O)c2ccc(C3CCCC3)c(OCC3CC3)n2)no1` [Example 53, 5-Cyclopentyl-6-cyclopropylmethoxy-pyridine-2-carboxylic acid [(S)-2-cyclopropyl-1-(5-methyl-[1,2,4]oxadiazol-3-yl)-ethyl]-amide], the 50% effective concentration (EC50) was 45.7 nM at human CB2 receptors and greater than 10000 nM on human CB1 receptors.

As for `Cc1nc(C(C)(C)NC(=O)c2ccc(C3CCCC3)c(OCC3CC3)n2)no1` [Example 54, 5-Cyclopentyl-6-cyclopropylmethoxy-pyridine-2-carboxylic acid [1-methyl-1-(5-methyl-[1,2,4]oxadiazol-3-yl)-ethyl]-amide], the EC50 was 11.4 nM at human CB2 receptors and 2160 nM on human CB1 receptors.

Consider `CC(C)(NC(=O)c1ccc(C2CCCC2)c(OCC2CC2)n1)c1nccs1` [Example 55, 5-Cyclopentyl-6-cyclopropylmethoxy-pyridine-2-carboxylic acid (1-methyl-1-thiazol-2-yl-ethyl)-amide], for which the EC50 on human CB2 receptors worked out at 31.7 nM; at human CB1 receptors it was 1390 nM.

`CC(C)C[C@H](NC(=O)c1cccc(-c2cccc(Cl)c2)n1)c1nccs1` [Example 56, 6-(3-Chloro-phenyl)-pyridine-2-carboxylic acid ((S)-3-methyl-1-thiazol-2-yl-butyl)-amide]: the EC50 at human CB2 receptors is 173 nM; on human CB1 receptors, greater than 10000 nM.

`Cc1nc([C@H](CC2CC2)NC(=O)c2ccc(C)c(OCC3CC3)n2)no1` [Example 57, 6-Cyclopropylmethoxy-5-methyl-pyridine-2-carboxylic acid [(S)-2-cyclopropyl-1-(5-methyl-[1,2,4]oxadiazol-3-yl)-ethyl]-amide]: the EC50 at human CB2 receptors was 319 nM; at human CB1 receptors, greater than 10000 nM.

As for `CC(C)(NC(=O)c1ccc(Cl)c(-c2cccc(Cl)c2)n1)c1nccs1` [Example 58, 5-Chloro-6-(3-chloro-phenyl)-pyridine-2-carboxylic acid (1-methyl-1-thiazol-2-yl-ethyl)-amide], the EC50 at human CB2 receptors was 104 nM; at human CB1 receptors, 1110 nM.

Consider `O=C(N[C@@H](CC1CC1)c1nccs1)c1ccc(C2CCOCC2)c(OCC2CC2)n1` [Example 59, 6-Cyclopropylmethoxy-5-(tetrahydro-pyran-4-yl)-pyridine-2-carboxylic acid ((S)-2-cyclopropyl-1-thiazol-2-yl-ethyl)-amide], for which the EC50 on human CB2 receptors is 32.5 nM; at human CB1 receptors it was greater than 10000 nM.

Consider `O=C(N[C@@H](CC1CC1)c1nccs1)c1cccc(-c2cccc(Cl)c2)n1` [Example 60, 6-(3-Chloro-phenyl)-pyridine-2-carboxylic acid ((S)-2-cyclopropyl-1-thiazol-2-yl-ethyl)-amide], for which the results for the EC50 at human CB2 receptors and at human CB1 receptors were 62.2 nM and greater than 10000 nM, respectively.

`CC(C)(NC(=O)c1ccc(N2CCCC2=O)c(OCC2CC2)n1)c1ncco1` [Example 61, 6-Cyclopropylmethoxy-5-(2-oxo-pyrrolidin-1-yl)-pyridine-2-carboxylic acid (1-methyl-1-oxazol-2-yl-ethyl)-amide]: the results for the EC50 on human CB2 receptors and on human CB1 receptors were 1480 nM and greater than 10000 nM, respectively.

`Cc1ccc(C(=O)NC(C)(C)c2nccs2)nc1OCC1CC1` [Example 62, 6-Cyclopropylmethoxy-5-methyl-pyridine-2-carboxylic acid (1-methyl-1-thiazol-2-yl-ethyl)-amide]: the EC50 at human CB2 receptors worked out at 11.5 nM; at human CB1 receptors, 561 nM.

As to `CC(C)(NC(=O)c1ccc(N2CCCC2)c(OCC2CC2)n1)C1=NCCO1` [Example 63, 6-Cyclopropylmethoxy-5-pyrrolidin-1-yl-pyridine-2-carboxylic acid [1-(4,5-dihydro-oxazol-2-yl)-1-methyl-ethyl]-amide], the EC50 was 112 nM at human CB2 receptors and greater than 10000 nM on human CB1 receptors.

For the compound `Cc1ccc(C(=O)N[C@@H](CC(C)C)c2nccs2)nc1OCC1CC1` [Example 64, 6-Cyclopropylmethoxy-5-methyl-pyridine-2-carboxylic acid ((S)-3-methyl-1-thiazol-2-yl-butyl)-amide], the concentration giving a half-maximal response (EC50) at human CB2 receptors turned out to be 18.9 nM; on human CB1 receptors, 1460 nM.

In the case of `Cc1ccc(C(=O)N[C@@H](CC2CC2)c2nccs2)nc1OCC1CC1` [Example 65, 6-Cyclopropylmethoxy-5-methyl-pyridine-2-carboxylic acid ((S)-2-cyclopropyl-1-thiazol-2-yl-ethyl)-amide], the results for the EC50 at human CB2 receptors and on human CB1 receptors were 33.8 nM and greater than 10000 nM, respectively.

As for `O=C(NN1CCCCC1)c1ccc(Cl)c(-c2cccc(Cl)c2)n1` [Example 66, 5-Chloro-6-(3-chloro-phenyl)-pyridine-2-carboxylic acid piperidin-1-ylamide], the EC50 is 216 nM at human CB2 receptors and greater than 10000 nM at human CB1 receptors.

`CNC(=O)C(C)(C)NC(=O)c1ccc(C2CC2)c(-c2cccc(Cl)c2)n1` [Example 67, 6-(3-Chloro-phenyl)-5-cyclopropyl-pyridine-2-carboxylic acid (1-methyl-1-methylcarbamoyl-ethyl)-amide]: the values for the EC50 at human CB2 receptors and on human CB1 receptors were 797 nM and greater than 10000 nM, respectively.

As for `O=C(NN1CCCCC1)c1cccc(OCC2CC2)n1` [Example 68, 6-Cyclopropylmethoxy-pyridine-2-carboxylic acid piperidin-1-ylamide], the results for the EC50 on human CB2 receptors and at human CB1 receptors were 429 nM and greater than 10000 nM, respectively.

Regarding `CC(C)(NC(=O)c1ccc(N2CC(F)(F)C2)c(OCC2CC2)n1)c1nccs1` [Example 69, 6-Cyclopropylmethoxy-5-(3,3-difluoro-azetidin-1-yl)-pyridine-2-carboxylic acid (1-methyl-1-thiazol-2-yl-ethyl)-amide], the EC50 on human CB2 receptors came to 6 nM; on human CB1 receptors, 380 nM.

For the compound `CCC(CC)(NC(=O)c1ccc(C)c(-c2cccc(Cl)c2)n1)C(=O)NC` [Example 70, 6-(3-Chloro-phenyl)-5-methyl-pyridine-2-carboxylic acid (1-ethyl-1-methylcarbamoyl-propyl)-amide], the EC50 at human CB2 receptors is 57.4 nM; on human CB1 receptors, greater than 10000 nM.
